The source of these data is ChEMBL document CHEMBL1144662, “Requirement of beta-alanine components in sequence-specific DNA alkylation by pyrrole-imidazole conjugates with seven-base pair recognition” (Bioorg Med Chem, 2008).

Calls of active or inactive are those of the source. No cut-off for these calls is given here.

Assay [1] in a line: Alkylation of plasmid DNA in 5'-Texas Red labeled 202-bp DNA fragment upto 5 uM after 15 hrs.
The nature of assay [2]: Alkylation of plasmid DNA at 5'-ACTACCA-3' site in 5'-Texas Red labeled 202-bp DNA fragment after 15 hrs.
A short description of assay [3]: Alkylation of plasmid DNA at 5'-ACAACCA-3' site in 5'-Texas Red labeled 202-bp DNA fragment after 15 hrs.
Assay [4] in a line: Alkylation of plasmid DNA at 5'-AGCTCCA-3' site in 5'-Texas Red labeled 202-bp DNA fragment after 15 hrs.
The nature of assay [5]: Alkylation of plasmid DNA at 5'-AGCACCA-3' site in 5'-Texas Red labeled 202-bp DNA fragment after 15 hrs.

In the case of `CC(=O)Nc1cn(C)c(C(=O)Nc2cn(C)c(C(=O)Nc3cc(C(=O)Nc4cn(C)c(C(=O)Nc5cc(C(=O)NCCCC(=O)Nc6cn(C)c(C(=O)Nc7cc(C(=O)NCCC(=O)Nc8ccc9[nH]c(C(=O)N%10CC(CCl)c%11c%10cc(O)c%10ccccc%11%10)cc9c8)n(C)c7)n6)n(C)c5)n4)n(C)c3)n2)n1` (stereo unspecified), the outcome in assay [1] was inactive.

Turning to `CC(=O)Nc1cn(C)c(C(=O)Nc2cn(C)c(C(=O)Nc3cc(C(=O)NCCC(=O)Nc4cn(C)c(C(=O)NCCCC(=O)Nc5cc(C(=O)Nc6cc(C(=O)Nc7cc(C(=O)Nc8ccc9[nH]c(C(=O)N%10CC(CCl)c%11c%10cc(O)c%10ccccc%11%10)cc9c8)n(C)c7)n(C)c6)n(C)c5)n4)n(C)c3)n2)n1` (stereo unspecified), the result in assay [2] and in assay [3] was Active.

As for `CC(=O)Nc1cn(C)c(C(=O)Nc2cn(C)c(C(=O)NCCC(=O)Nc3cn(C)c(C(=O)Nc4cc(C(=O)NCCCC(=O)Nc5cn(C)c(C(=O)Nc6cc(C(=O)Nc7cc(C(=O)Nc8ccc9[nH]c(C(=O)N%10CC(CCl)c%11c%10cc(O)c%10ccccc%11%10)cc9c8)n(C)c7)n(C)c6)n5)n(C)c4)n3)n2)n1` (stereo unspecified), the outcome in assay [4] and in assay [5] was Active.

With `CC(=O)Nc1cn(C)c(C(=O)Nc2cn(C)c(C(=O)NCCC(=O)Nc3cn(C)c(C(=O)Nc4cc(C(=O)NCCCC(=O)Nc5cn(C)c(C(=O)Nc6cc(C(=O)NCCC(=O)Nc7ccc8[nH]c(C(=O)N9CC(CCl)c%10c9cc(O)c9ccccc%109)cc8c7)n(C)c6)n5)n(C)c4)n3)n2)n1` (stereo unspecified), the outcome in assay [4] and in assay [5] was Active.

As for `CC(=O)Nc1cn(C)c(C(=O)Nc2cn(C)c(C(=O)Nc3cc(C(=O)NCCC(=O)Nc4cn(C)c(C(=O)NCCCC(=O)Nc5cc(C(=O)NCCC(=O)Nc6cc(C(=O)Nc7ccc8[nH]c(C(=O)N9CC(CCl)c%10c9cc(O)c9ccccc%109)cc8c7)n(C)c6)n(C)c5)n4)n(C)c3)n2)n1` (stereo unspecified), the outcome in assay [2] and in assay [3] was Active.

As for `CC(=O)Nc1cn(C)c(C(=O)Nc2cn(C)c(C(=O)Nc3cc(C(=O)Nc4cc(C(=O)Nc5cn(C)c(C(=O)NCCCC(=O)Nc6cc(C(=O)Nc7cc(C(=O)Nc8cc(C(=O)Nc9ccc%10[nH]c(C(=O)N%11CC(CCl)c%12c%11cc(O)c%11ccccc%12%11)cc%10c9)n(C)c8)n(C)c7)n(C)c6)n5)n(C)c4)n(C)c3)n2)n1` (stereo unspecified), the outcome in assay [2] and in assay [3] was Active.
